The source made the active and inactive calls. The calls are words filed in the database; no cut-off is given here.

3 compounds from ChEMBL document CHEMBL1158137, “Absolute configuration of sporotricale and structure of 6-hydroxysporotricale” (J Nat Prod, 2006) can be followed below.

The subject of one data set is BMEC. The experiment in a line: Cytotoxicity against bovine microvascular endothelial cells. It counts as cell-based, Bos taurus. The conditions noted are these: cattle.
The species entered for the next data set is Gallus gallus. The data set can be described thus: Antiangiogenic activity against bFGF-induced angiogenesis in chick embryo chorioallantoic membrane. It counts as functional, tissue-based.

Take `COc1cc(O)c(O)c2c1C(=O)O[C@@H]2CCCCCCCCCC1(O)CC[C@@H](C)O1` (stereo partly specified): the Activity entry with BMEC is “Non-toxic”. The outcome in the data set listed under Gallus gallus was Active.
`COc1cc(O)cc2c1C(=O)O[C@@H]2CCCCC[C@@H]1CCC[C@]2(CC[C@@H](C)O2)O1`: the Activity entry with BMEC is on record as “Non-toxic”. Moreover, the outcome in the data set filed under Gallus gallus was Active.
The like results for `COc1cc(O)cc2c1C(=O)O[C@@H]2CCCCCCCCCC1(O)CC[C@@H](C)O1` (stereo partly specified) were, in that order, “Non-toxic” and “Active”.
